*1 amine or outer side, *2 acyl side, *3 side chain or, on linkers, in order; H or OH if unused. Where a SMILES comes first, the peptide text is derived from it. Side-chain parts run from the residue outwards. The star is where a group is joined. C18 diacid = O=C(O)CCCCCCCCCCCCCCCCC(=O)*; γGlu = O=C(O)[C@H](CCC(=O)[*:2])N[*:1]; Isovaleryl = CC(C)CC(=O)*; AEEA = NCCOCCOCC(=O)O
Tests used:
normal NMRI mice = test: Effect on acute food intake in normal NMRI mice; type: in vivo; conditions: male NMRI mice, 10 nmol/kg subcutaneously once
Procedure, shortened: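 A single 10 nmol/kg s.c. peptide dose was given 1 h before lights-off to male NMRI mice fasted from 6 h before the night phase (n=7-8). Intake was recorded continuously by microchip-identified HM-2 feeding channels. Values are normalized to vehicle controls (50 mM phosphate buffer pH7 with 5% Mannitol).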

[1] = target: T1, Human Neuropeptide Y2 Receptor (Homo sapiens, UniProt P49146); test: Radioligand binding competition assay (RLB); conditions: Table 3; human 125I-PYY (1-36) 0.02 nM, Y2 receptor membranes; read-out: Ki
T1 construct: purchased CHEMICON HTS066M
T1 sequence (P49146 1-381): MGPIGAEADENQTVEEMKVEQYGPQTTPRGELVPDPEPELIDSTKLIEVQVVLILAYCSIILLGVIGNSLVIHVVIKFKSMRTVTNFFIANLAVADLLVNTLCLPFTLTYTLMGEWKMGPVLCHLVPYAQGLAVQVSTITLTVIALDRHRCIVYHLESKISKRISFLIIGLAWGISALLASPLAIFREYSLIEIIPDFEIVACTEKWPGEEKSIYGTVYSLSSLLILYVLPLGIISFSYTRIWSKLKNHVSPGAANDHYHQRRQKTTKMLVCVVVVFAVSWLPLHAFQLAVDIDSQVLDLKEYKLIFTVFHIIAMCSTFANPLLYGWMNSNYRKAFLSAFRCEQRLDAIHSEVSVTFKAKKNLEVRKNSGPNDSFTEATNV
Procedure, shortened: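 Filtration format; Y2R membrane prep 0.5 μg/well; buffer 50 mM HEPES/5 mM MgCl2/1 mM CaCl2/0.2% ovalbumin pH 7.4; 2 h RT, shaking. Harvest on PEI-soaked GF/C, ice-cold HEPES/500 mM NaCl washes, scintillation count. IC50 by nonlinear fit.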

Row | SMILES | Acute Food Intake 24 h [% vehicle] (normal NMRI mice) | Ki [1] [nM]
1 | CC(C)CC(=O)N[C@@H](C)C(=O)N1CCC[C@H]1C(=O)N[C@@H](CCC(=O)O)C(=O)N[C@@H](CCCCNC(=O)COCCOCCNC(=O)COCCOCCNC(=O)CC[C@H](NC(=O)CCCCCCCCCCCCCCCCC(=O)O)C(=O)O)C(=O)N1CCC[C@H]1C(=O)N[C@@H](CCC(=O)O)C(=O)N[C@@H](CCC(=O)O)C(=O)N[C@@H](CC(=O)O)C(=O)N[C@@H](C)C(=O)N[C@@H](C)C(=O)N1CCC[C@H]1C(=O)N[C@@H](CCC(=O)O)C(=O)N[C@@H](CCC(=O)O)C(=O)N[C@@H](CC(C)C)C(=O)N[C@@H](CCC(N)=O)C(=O)N[C@@H](CCCCN)C(=O)N[C@@H](Cc1ccc(O)cc1)C(=O)N[C@@H](Cc1ccc(O)cc1)C(=O)N[C@H](C(=O)N[C@@H](CO)C(=O)N[C@@H](CC(C)C)C(=O)N[C@@H](CCCNC(=N)N)C(=O)N[C@@H](Cc1c[nH]cn1)C(=O)N[C@@H](Cc1ccc(O)cc1)C(=O)N[C@@H](Cc1ccc(O)cc1)C(=O)N[C@@H](CC(N)=O)C(=O)N[C@@H](Cc1c[nH]c2ccccc12)C(=O)N[C@@H](CC(C)C)C(=O)N[C@H](C(=O)N[C@@H](CCCNC(=N)N)C(=O)N[C@@H](CCC(N)=O)C(=O)N[C@@H](CCCNC(=N)N)C(=O)N[C@@H](Cc1ccc(O)cc1)C(N)=O)[C@@H](C)O)C(C)C [Compound 202, N{alpha-4}-(3-methylbutanoyl)-N{epsilon-7}-[2-(2-{2-[2-(2-{2-[(4S)-4-carboxy-4-(17-carboxyheptadecanamido)butanamido]ethoxy}ethoxy)acetamido]ethoxy}ethoxy)acetamido]-[4A,7K,9E,13A,18Q,19K,22V,28Y,30W,31L]hPYY (4-36)] | 48 | 0.6
2 | CC(C)CC(=O)N[C@@H](C)C(=O)N1CCC[C@H]1C(=O)N[C@@H](CCC(=O)O)C(=O)N[C@@H](CCCCNC(=O)COCCOCCNC(=O)COCCOCCNC(=O)CC[C@H](NC(=O)CCCCCCCCCCCCCCCCC(=O)O)C(=O)O)C(=O)N1CCC[C@H]1C(=O)N[C@@H](CCC(=O)O)C(=O)N[C@@H](CCC(=O)O)C(=O)N[C@@H](CCC(=O)O)C(=O)N[C@@H](C)C(=O)N[C@@H](CO)C(=O)N1CCC[C@H]1C(=O)N[C@@H](CCC(=O)O)C(=O)N[C@@H](CCC(=O)O)C(=O)N[C@@H](CC(C)C)C(=O)N[C@@H](CCC(N)=O)C(=O)N[C@@H](CCCCN)C(=O)N[C@@H](Cc1ccc(O)cc1)C(=O)N[C@@H](Cc1ccc(O)cc1)C(=O)N[C@H](C(=O)N[C@@H](CO)C(=O)N[C@@H](CC(C)C)C(=O)N[C@@H](CCCNC(=N)N)C(=O)N[C@@H](Cc1c[nH]cn1)C(=O)N[C@@H](Cc1ccc(O)cc1)C(=O)N[C@@H](Cc1ccc(O)cc1)C(=O)N[C@@H](CC(N)=O)C(=O)N[C@@H](Cc1c[nH]c2ccccc12)C(=O)N[C@@H](CC(C)C)C(=O)N[C@H](C(=O)N[C@@H](CCCNC(=N)N)C(=O)N[C@@H](CCC(N)=O)C(=O)N[C@@H](CCCNC(=N)N)C(=O)N[C@@H](Cc1ccc(O)cc1)C(N)=O)[C@@H](C)O)C(C)C [Compound 205, N{alpha-4}-(3-methylbutanoyl)-N{epsilon-7}-[2-(2-{2-[2-(2-{2-[(4S)-4-carboxy-4-(17-carboxyheptadecanamido)butanamido]ethoxy}ethoxy)acetamido]ethoxy}ethoxy)acetamido]-[4A,7K,9E,11E,18Q,19K,22V,28Y,30W,31L]hPYY (4-36)] (Isovaleryl-APEK([AEEA-AEEA-γGlu-C18 diacid])PEEEASPEELQKYYVSLRHYYNWLTRQRY-NH2) | 65 | 1.9
3 | CC(C)CC(=O)N[C@@H](C)C(=O)N1CCC[C@H]1C(=O)N[C@@H](CCC(=O)O)C(=O)N[C@@H](CCCCNC(=O)COCCOCCNC(=O)COCCOCCNC(=O)CC[C@H](NC(=O)CCCCCCCCCCCCCCCCC(=O)O)C(=O)O)C(=O)N1CCC[C@H]1C(=O)N[C@@H](CCC(=O)O)C(=O)N[C@@H](CCC(=O)O)C(=O)N[C@@H](CC(=O)O)C(=O)N[C@@H](C)C(=O)N[C@@H](CO)C(=O)N[C@@H](CCC(=O)O)C(=O)N[C@@H](CCC(=O)O)C(=O)N[C@@H](CCC(=O)O)C(=O)N[C@H](C(=O)N[C@@H](CCC(N)=O)C(=O)N[C@@H](CCCNC(=N)N)C(=O)N[C@@H](Cc1ccc(O)cc1)C(=O)N[C@@H](Cc1ccc(O)cc1)C(=O)N[C@H](C(=O)N[C@@H](CO)C(=O)N[C@@H](CC(C)C)C(=O)N[C@@H](CCCNC(=N)N)C(=O)N[C@@H](Cc1c[nH]cn1)C(=O)N[C@@H](Cc1ccc(O)cc1)C(=O)N[C@@H](Cc1ccc(O)cc1)C(=O)N[C@@H](CC(N)=O)C(=O)N[C@@H](Cc1c[nH]c2ccccc12)C(=O)N[C@@H](CC(C)C)C(=O)N[C@H](C(=O)N[C@@H](CCCNC(=N)N)C(=O)N[C@@H](CCC(N)=O)C(=O)N[C@@H](CCCNC(=N)N)C(=O)N[C@@H](Cc1ccc(O)cc1)C(N)=O)[C@@H](C)O)C(C)C)[C@@H](C)O [Compound 208, N{alpha-4}-(3-methylbutanoyl)-N{epsilon-7}-[2-(2-{2-[2-(2-{2-[(4S)-4-carboxy-4-(17-carboxyheptadecanamido)butanamido]ethoxy}ethoxy)acetamido]ethoxy}ethoxy)acetamido]-[4A,7K,9E,14E,17T,18Q,22V,28Y,30W,31L]hPYY (4-36)] | 61 | 3.8
4 | CC(C)CC(=O)N[C@@H](C)C(=O)N1CCC[C@H]1C(=O)N[C@@H](CCC(=O)O)C(=O)N[C@@H](CCCCNC(=O)COCCOCCNC(=O)COCCOCCNC(=O)CC[C@H](NC(=O)CCCCCCCCCCCCCCCCC(=O)O)C(=O)O)C(=O)N1CCC[C@H]1C(=O)N[C@@H](CCC(=O)O)C(=O)N[C@@H](CCC(=O)O)C(=O)N[C@@H](CC(=O)O)C(=O)N[C@@H](CO)C(=O)N[C@@H](CCC(=O)O)C(=O)N1CCC[C@H]1C(=O)N[C@@H](CCC(=O)O)C(=O)N[C@@H](CCC(=O)O)C(=O)N[C@@H](CC(C)C)C(=O)N[C@@H](CCC(N)=O)C(=O)N[C@@H](CCCNC(=N)N)C(=O)N[C@@H](Cc1ccc(O)cc1)C(=O)N[C@@H](Cc1ccc(O)cc1)C(=O)N[C@H](C(=O)N[C@@H](CO)C(=O)N[C@@H](CC(C)C)C(=O)N[C@@H](CCCNC(=N)N)C(=O)N[C@@H](Cc1c[nH]cn1)C(=O)N[C@@H](Cc1ccc(O)cc1)C(=O)N[C@@H](Cc1ccc(O)cc1)C(=O)N[C@@H](CC(N)=O)C(=O)N[C@@H](Cc1c[nH]c2ccccc12)C(=O)N[C@@H](CC(C)C)C(=O)N[C@H](C(=O)N[C@@H](CCCNC(=N)N)C(=O)N[C@@H](CCC(N)=O)C(=O)N[C@@H](CCCNC(=N)N)C(=O)N[C@@H](Cc1ccc(O)cc1)C(N)=O)[C@@H](C)O)C(C)C [Compound 209, N{alpha-4}-(3-methylbutanoyl)-N{epsilon-7}-[2-(2-{2-[2-(2-{2-[(4S)-4-carboxy-4-(17-carboxyheptadecanamido)butanamido]ethoxy}ethoxy)acetamido]ethoxy}ethoxy)acetamido]-[4A,7K,9E,12S,13E,18Q,22V,28Y,30W,31L]hPYY (4-36)] | 50 | 8.07
5 | CC[C@H](C)[C@H](NC(=O)[C@H](CCC(=O)O)NC(=O)[C@H](CCC(=O)O)NC(=O)[C@@H]1CCCN1C(=O)[C@H](CO)NC(=O)[C@H](C)NC(=O)[C@H](CCC(=O)O)NC(=O)[C@H](CCC(=O)O)NC(=O)[C@H](CCC(=O)O)NC(=O)[C@@H]1CCCN1C(=O)[C@H](CCCCNC(=O)COCCOCCNC(=O)COCCOCCNC(=O)CC[C@H](NC(=O)CCCCCCCCCCCCCCCCC(=O)O)C(=O)O)NC(=O)[C@H](CCC(=O)O)NC(=O)[C@@H]1CCCN1C(=O)[C@H](C)NC(=O)CC(C)C)C(=O)N[C@@H](CCC(N)=O)C(=O)N[C@@H](CCCNC(=N)N)C(=O)N[C@@H](Cc1ccc(O)cc1)C(=O)N[C@@H](Cc1ccc(O)cc1)C(=O)N[C@H](C(=O)N[C@@H](CO)C(=O)N[C@@H](CC(C)C)C(=O)N[C@@H](CCCNC(=N)N)C(=O)N[C@@H](Cc1c[nH]cn1)C(=O)N[C@@H](Cc1ccc(O)cc1)C(=O)N[C@@H](Cc1ccc(O)cc1)C(=O)N[C@@H](CC(N)=O)C(=O)N[C@@H](Cc1c[nH]c2ccccc12)C(=O)N[C@@H](CC(C)C)C(=O)N[C@H](C(=O)N[C@@H](CCCNC(=N)N)C(=O)N[C@@H](CCC(N)=O)C(=O)N[C@@H](CCCNC(=N)N)C(=O)N[C@@H](Cc1ccc(O)cc1)C(N)=O)[C@@H](C)O)C(C)C [Compound 241, N{alpha-4}-(3-methylbutanoyl)-N{epsilon-7}-[2-(2-{2-[2-(2-{2-[(4S)-4-carboxy-4-(17-carboxyheptadecanamido)butanamido]ethoxy}ethoxy)acetamido]ethoxy}ethoxy)acetamido]-[4A,7K,9E,11E,17I,18Q,22V,28Y,30W,31L]hPYY (4-36)] | 45 | 2.95
